Results published in US20050282743A1, “Molecular interactions in cells” (Arbor Vita Corporation, priority 2001, published 2005).
Peptide text beside a SMILES is read from it. * marks the point of attachment. Biotin = O=C1N[C@H]2[C@H](CS[C@H]2CCCCC(=O)*)N1

Molecular target: T1, TIP1 (PDZ Domain 1) (Homo sapiens, UniProt O14907)
T1 construct: made in house; host or cells: E. coli (DH5alpha, BL21 or JM109)
Assay: G' assay and Kd titration, TABLE 12
Assay type: binding
Conditions: A450 nm class of biotinylated PL peptide bound; 0 in conc columns = peptide 10 uM, protein 5 ug/ml
Method: The third column labeled “Peptide Optimal Concentration” in the tables is a number reflective of the binding interaction between the PL protein and PDZ protein. […] The column labeled “Protein Optimal Concentration” refers to the protein concentration used to assay PL interaction (in ug/ml); a ‘0’ is indicative of 5 ug/ml protein concentration; any other value represents the concentration (in ug/ml) used to determine the dissociation constant for a given interaction.
Finally, the seventh column labeled “Classification” is another measure of the level of binding. In particular, it provides an absorbance value at 450 nm which indicates the amount of PL peptide bound to the PDZ protein. […]
For convenience, the assay conditions described in this section are referred to as the “G′ assay” and the “G″ assay,” with the specific conditions described in the preceding section on G assays being referred to as the “G^0 assay.” The “G′ assay” is identical to the “G^0 assay” except at step (2) the peptide concentration is 10 uM instead of 20 uM. […] Correspondingly, it slightly increases the certainty that detected interactions are of sufficient affinity and half-life to be of biological importance and useful therapeutic targets.

T1 sequence (O14907 14-116): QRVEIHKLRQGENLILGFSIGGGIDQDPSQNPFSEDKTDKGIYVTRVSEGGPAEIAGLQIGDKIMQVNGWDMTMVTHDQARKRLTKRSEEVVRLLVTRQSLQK

Row | Structure (SMILES) | Classification
1 | CC(C)C[C@H](NC(=O)[C@H](C)NC(=O)[C@@H](NC(=O)[C@@H](NC(=O)[C@H](Cc1c[nH]cn1)NC(=O)[C@H](CC(C)C)NC(=O)CNC(=O)[C@H](CCC(N)=O)NC(=O)CNC(=O)CNC(=O)[C@H](C)NC(=O)[C@H](C)NC(=O)[C@H](CCCNC(=N)N)NC(=O)[C@H](C)NC(=O)[C@H](CO)NC(=O)[C@H](CC(=O)O)NC(=O)[C@H](CC(=O)O)NC(=O)[C@H](Cc1c[nH]c2ccccc12)NC(=O)[C@H](C)NC(=O)CCCC[C@@H]1SC[C@@H]2NC(=O)N[C@@H]21)C(C)C)[C@@H](C)O)C(=O)O [LPAP] (Biotin-AWDDSARAAGGQGLHVTAL-OH; C-terminus assumed) | 5 (A450 nm of 4 more than 2× repeated)
2 | CC[C@H](C)[C@H](NC(=O)[C@H](CCC(N)=O)NC(=O)CCCC[C@@H]1SC[C@@H]2NC(=O)N[C@@H]21)C(=O)N[C@@H](CO)C(=O)N1CCC[C@H]1C(=O)NCC(=O)NCC(=O)N[C@@H](CC(C)C)C(=O)N[C@@H](CCC(=O)O)C(=O)N1CCC[C@H]1C(=O)N1CCC[C@H]1C(=O)N[C@@H](CO)C(=O)N[C@@H](CCC(=O)O)C(=O)N[C@@H](CCCCN)C(=O)N[C@@H](Cc1c[nH]cn1)C(=O)N[C@@H](Cc1ccccc1)C(=O)N[C@@H](CCCNC(=N)N)C(=O)N[C@@H](CCC(=O)O)C(=O)N[C@H](C(=O)N[C@@H](CCC(=O)O)C(=O)N[C@H](C(=O)O)C(C)C)[C@@H](C)O [Tax] | 5 (A450 nm of 4 more than 2× repeated)
